Test results from PubChem BioAssay AID1963865 (Molecular Pharmacology Branch, DTP, NCI, 2024).

Tested on: KRAS PDC multicell spheroid viability
Assay: Anticancer human tumor 825966-067-R-J1-PDC patient-derived colon carcinoma cell line growth inhibition [KRAS2]
Details: for IC50: curve of first compound; for viability, T/C: stronger effect = lower value
Excerpt: Multicellular complex tumor spheroid response to RAS pathway inhibitors in combination with a targeted agents in patient-derived cell lines with oncogenic KRAS variants from multiple cancer types
A high-throughput screen of multi-cell type tumor spheroids was designed to identify active combinations of targeted small molecules and KRAS pathway inhibitors. Complex spheroids include a stromal component modeled by human endothelial cells (HUVEC) and fibroblasts modeled by human mesenchymal stem cells (MSCs). The concentration ranges selected for each drug and investigational agent were based upon clinically achievable concentrations if the clinical Cmax of the agent was known.
Compounds. The drugs and investigational agents: BI-3406 (NSC825286), BAY-293 (NSC824723), batoprotafib (TNO155; NSC825523), sotorasib (AMG 510; NSC818433), MRTX1257 (NSC819558), elimusertib (BAY 1895344; NSC800525), molibresib (GSK525762; NSC774829), temuterkib (LY3214996; NSC803410), venetoclax (NSC766270), alisertib (NSC759677), olaparib (NSC753686), talazoparib (NSC767125), erdafitinib (NSC781556), ipatasertib (NSC767898), cabozantinib (NSC761068), nintedanib (NSC756659), abemaciclib (NSC768073), docetaxel (NSC628503), trametinib (NSC758246), and sapanisertib (NSC764658) were obtained from the National Cancer Institute (NCI) Developmental Therapeutics Program Chemical Repository. The FDA-approved anticancer drug set is available from the Developmental Therapeutics Program. […] The stock solutions were prepared in dimethyl sulfoxide (DMSO, Sigma-Aldrich, St. Louis, MO, cat. D2650) at 800-fold the tested concentration and stored at -70 degrees C prior to their use. All drugs and investigational agents were tested over a range starting from a high concentration at or near the clinical Cmax and decreasing in half-log increments. If the clinical Cmax for an agent had not been determined, the highest concentration tested was 10 microM.
Cell Culture. All cells were maintained in an incubator at 37 degrees C and 5% CO2 with 95% humidity. The PDC lines were cultured according to standard operating procedures established by the NCI PDMR (https://pdmr.cancer.gov/sops/default.htm). Briefly, all PDCs were thawed and cultured in Matrigel-coated flasks prepared with a working solution of 1X Ham's F-12 nutrient mix, without supplementation (Invitrogen, Waltham, MA, cat. 11765054), 100 U/mL penicillin-streptomycin (Invitrogen, cat. 15140122), and 2.5% Matrigel (Corning Inc., Corning, NY, cat. 354248) for the first three passages. All PDCs were cultured in complete DMEM/F-12 media containing advanced DMEM/F-12 (Invitrogen, cat. 12634028), 4.9% defined fetal bovine serum, heat inactivated (HyClone Laboratories Inc., Logan, UT, cat. SH30070.03HI), 389 ng/mL hydrocortisone (Sigma-Aldrich, cat. H4001), 9.7 ng/mL human EGF recombinant protein (Invitrogen, cat. PHG0313), 23.4 microg/mL adenine (Sigma-Aldrich, cat. A2786), 97.3 U/mL penicillin-streptomycin (Invitrogen, cat. 15140122), 1.9 mM L-glutamine (Invitrogen, cat. 25030081), and 9.7 microM Y-27632 dihydrochloride (Tocris Bioscience, Bristol, United Kingdom, cat. 1254). The PDCs were cultured in complete DMEM/F12 media without 9.7 microM Y-27632 dihydrochloride for at least two passages prior to the screen. The established cell line HOP-62 was cultured in RPMI 1640 medium, HEPES (Invitrogen, cat. 22400105) with 10% defined fetal bovine serum (HyClone Laboratories Inc., cat. SH30070.03) and 2 mM L-glutamine (Invitrogen, cat. 25030081). The pooled donor HUVEC were cultured in endothelial cell growth medium 2 (PromoCell, Heidelberg, Germany, cat. C-22011) and the hMSC were cultured in mesenchymal stem cell growth medium 2 (PromoCell, cat. C-28009). For all experiments, HUVEC and hMSC were used at passages </=5, while the malignant cell lines were used at passages </=15. […]
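Also: spheroids exposed to compounds for 7 days.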
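For viability, T/C in this document: 100% = DMSO vehicle control viability.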

With `COc1cc(Nc2ncc3c(n2)-c2ccc(Cl)cc2C(c2c(F)cccc2OC)=NC3)ccc1C(=O)O` + C=CC(=O)N1CCN(c2nc(=O)n(-c3c(C)ccnc3C(C)C)c3nc(-c4c(O)cccc4F)c(F)cc23)C(C)C1 the IC50 (second compound 0.1 µM) was > 10 µM, the IC50 (second compound 0.316 µM) was > 10 µM and the IC50 (second compound 1 µM) was > 10 µM. For the same compound, the IC50 (second compound 3.16 µM) was > 10 µM, the IC50 (second compound 10 µM) was > 10 µM and the viability, T/C (second compound 0.1 µM, first compound 0.0316 µM) was 144%. For the same compound, the viability, T/C (second compound 0.1 µM, first compound 0.1 µM) was 117%, the viability, T/C (second compound 0.1 µM, first compound 0.316 µM) was 141% and the viability, T/C (second compound 0.1 µM, first compound 1 µM) was 140%. It also gave a viability, T/C (second compound 0.1 µM, first compound 3.16 µM) of 138%, a viability, T/C (second compound 0.1 µM, first compound 10 µM) of 133% and a viability, T/C (second compound 0.316 µM, first compound 0.0316 µM) of 116%. The viability, T/C (second compound 0.316 µM, first compound 0.1 µM) was 107%, the viability, T/C (second compound 0.316 µM, first compound 0.316 µM) was 135% and the viability, T/C (second compound 0.316 µM, first compound 1 µM) was 140%. The viability, T/C (second compound 0.316 µM, first compound 3.16 µM) was 154%, the viability, T/C (second compound 0.316 µM, first compound 10 µM) was 134% and the viability, T/C (second compound 1 µM, first compound 0.0316 µM) was 88.9%. The viability, T/C (second compound 1 µM, first compound 0.1 µM) was 107%, the viability, T/C (second compound 1 µM, first compound 0.316 µM) was 96% and the viability, T/C (second compound 1 µM, first compound 1 µM) was 127%. It also gave a viability, T/C (second compound 1 µM, first compound 3.16 µM) of 123%, a viability, T/C (second compound 1 µM, first compound 10 µM) of 118% and a viability, T/C (second compound 3.16 µM, first compound 0.0316 µM) of 104%. The viability, T/C (second compound 3.16 µM, first compound 0.1 µM) was 93.5%, the viability, T/C (second compound 3.16 µM, first compound 0.316 µM) was 142% and the viability, T/C (second compound 3.16 µM, first compound 1 µM) was 118%. The viability, T/C (second compound 3.16 µM, first compound 3.16 µM) was 144%, the viability, T/C (second compound 3.16 µM, first compound 10 µM) was 103% and the viability, T/C (second compound 10 µM, first compound 0.0316 µM) was 83.3%. It also gave a viability, T/C (second compound 10 µM, first compound 0.1 µM) of 66%, a viability, T/C (second compound 10 µM, first compound 0.316 µM) of 97.7% and a viability, T/C (second compound 10 µM, first compound 1 µM) of 79.5%. It also gave a viability, T/C (second compound 10 µM, first compound 3.16 µM) of 116% and a viability, T/C (second compound 10 µM, first compound 10 µM) of 90.5%.
